39 compounds from US8859559B2, “Substituted pyrazines and their use in the treatment of disease” (Boehringer Ingelheim International GmbH, priority 2011, dated 2014) can be followed below.

For the experiment, the target named is T1, ENaC (Epithelial Sodium Channel) (Mus musculus, UniProt Q61180+Q9WU38+Q9WU39).
T1 construct: Mouse kidney M-1 cells were cultivated in DMEM; endogenous in cells; host or cells: Mouse kidney M-1 cells (dexamethasone-treated, on transwell filters)
T1 sequence (Q61180 1-699): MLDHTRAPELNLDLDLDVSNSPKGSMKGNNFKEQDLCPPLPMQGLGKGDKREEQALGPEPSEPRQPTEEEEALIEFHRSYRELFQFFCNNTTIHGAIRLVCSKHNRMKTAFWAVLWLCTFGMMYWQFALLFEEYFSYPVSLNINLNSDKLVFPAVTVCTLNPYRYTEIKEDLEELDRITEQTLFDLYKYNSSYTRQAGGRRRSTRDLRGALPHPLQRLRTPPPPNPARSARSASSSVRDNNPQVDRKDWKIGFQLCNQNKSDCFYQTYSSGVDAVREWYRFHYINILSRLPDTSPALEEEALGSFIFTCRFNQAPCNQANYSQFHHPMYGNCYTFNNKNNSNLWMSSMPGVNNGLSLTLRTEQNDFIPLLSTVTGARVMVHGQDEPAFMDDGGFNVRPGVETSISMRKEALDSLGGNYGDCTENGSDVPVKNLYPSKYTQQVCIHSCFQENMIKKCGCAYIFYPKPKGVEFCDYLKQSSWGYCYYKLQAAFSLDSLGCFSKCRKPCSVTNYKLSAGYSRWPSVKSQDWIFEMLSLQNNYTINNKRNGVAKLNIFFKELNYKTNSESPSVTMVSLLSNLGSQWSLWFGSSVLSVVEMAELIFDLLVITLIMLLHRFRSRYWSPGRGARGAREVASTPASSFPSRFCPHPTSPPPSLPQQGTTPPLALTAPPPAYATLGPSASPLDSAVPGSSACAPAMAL
T1 sequence (Q9WU38 1-638): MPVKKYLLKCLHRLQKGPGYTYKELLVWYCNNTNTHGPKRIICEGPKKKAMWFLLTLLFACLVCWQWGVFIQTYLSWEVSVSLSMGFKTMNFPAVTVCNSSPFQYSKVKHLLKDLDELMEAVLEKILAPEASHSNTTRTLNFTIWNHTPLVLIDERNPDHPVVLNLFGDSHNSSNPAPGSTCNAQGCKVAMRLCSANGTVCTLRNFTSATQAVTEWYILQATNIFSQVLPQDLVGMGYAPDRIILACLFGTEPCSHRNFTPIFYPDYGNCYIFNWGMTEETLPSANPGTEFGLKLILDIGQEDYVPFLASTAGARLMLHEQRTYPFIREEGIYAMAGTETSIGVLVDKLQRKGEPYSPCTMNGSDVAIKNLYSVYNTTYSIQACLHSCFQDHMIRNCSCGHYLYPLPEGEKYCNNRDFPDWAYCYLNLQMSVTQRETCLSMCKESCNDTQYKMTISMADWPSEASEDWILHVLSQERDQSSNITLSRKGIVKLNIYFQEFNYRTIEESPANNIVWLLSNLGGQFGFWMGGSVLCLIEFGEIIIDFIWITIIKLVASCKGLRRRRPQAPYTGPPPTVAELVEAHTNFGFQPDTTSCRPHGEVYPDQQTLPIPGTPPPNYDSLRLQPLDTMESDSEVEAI
T1 sequence (Q9WU39 1-655): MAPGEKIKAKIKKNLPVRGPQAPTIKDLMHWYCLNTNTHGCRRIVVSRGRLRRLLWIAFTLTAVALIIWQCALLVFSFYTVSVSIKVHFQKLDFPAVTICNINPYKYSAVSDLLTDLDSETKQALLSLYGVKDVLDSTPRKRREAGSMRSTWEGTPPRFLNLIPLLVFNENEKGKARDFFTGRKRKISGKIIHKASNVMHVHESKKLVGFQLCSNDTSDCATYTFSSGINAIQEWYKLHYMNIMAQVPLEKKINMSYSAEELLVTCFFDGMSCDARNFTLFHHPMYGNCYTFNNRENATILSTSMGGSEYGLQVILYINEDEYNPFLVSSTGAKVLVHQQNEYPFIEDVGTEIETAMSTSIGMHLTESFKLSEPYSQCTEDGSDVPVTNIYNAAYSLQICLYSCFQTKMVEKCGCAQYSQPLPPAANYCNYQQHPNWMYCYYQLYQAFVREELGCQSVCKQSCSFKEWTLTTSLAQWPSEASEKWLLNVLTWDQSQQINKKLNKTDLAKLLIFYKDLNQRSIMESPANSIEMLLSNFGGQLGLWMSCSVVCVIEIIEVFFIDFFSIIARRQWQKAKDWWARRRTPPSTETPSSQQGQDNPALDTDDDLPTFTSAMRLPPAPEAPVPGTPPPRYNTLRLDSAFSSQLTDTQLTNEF
As to the kind of experiment: Ussing chamber: inhibition of amiloride sensitive short circuit current (I_sc) in M-1 cells. The following applies: mouse kidney M-1 cells. The format is cell-based. The procedure: Mouse kidney M-1 cells were cultivated in DMEM containing 5% FCS and 5 μM dexamethasone for 10 to 12 days on polyester transwell filters. Filters were inserted into a teflon-coated well-plate which fit into the in-house ussing chamber system. Prior to measurement the medium of M-1 cells was replaced with Caco-2 transport buffer (Invitrogen, Germany). During measurements, the Ussing chamber temperature was kept at 37° C. Short circuit currents (I_sc) were measured in the voltage-clamp mode using an in-house built amplifier (Boehringer Ingelheim, Biberach) with the software package Lab View for data acquisition and analysis. The transepithelial electrical resistance (TEER) was determined by the application of voltage steps of ±5 mV every 5 sec. Compounds were administered at a final concentration of 3 μM or at increasing concentrations (1-3-10 μM) to the apical solution. At the end of each experiment the amiloride sensitive I_SC was measured by adding 3 μM amiloride to the apical compartment. Results are expressed as inhibition in percent of the amiloride effect or as IC50. With the example compounds given above, the following IC50 values were determined in the Ussing Chamber assay: […]

Usually IC50 stands for the concentration that inhibits the measured activity by half. Read a high IC50 as weaker potency.

The compound `NCCOCCOCCNC(=O)c1ccc(CN2CCC(NC(N)=NC(=O)c3nc(Cl)c(N)nc3N)CC2)cc1` [Example 1.47] had an IC50 of 3 nM. This counts as single-digit nanomolar.

As for `COCCOc1ccc(C(=O)NCCOCCOCCNC(=O)c2ccc(CN3CCC(NC(N)=NC(=O)c4nc(Cl)c(N)nc4N)CC3)cc2)cc1` [Example 1.49], the IC50 was found to be 6 nM. Turning to `C#Cc1ccc(CN2CCC(NC(N)=NC(=O)c3nc(Cl)c(N)nc3N)CC2)cc1` [Example 1.50], 5 nM corresponded to half-maximal inhibition (IC50). The result for `N/C(=N\C(=O)c1nc(Cl)c(N)nc1N)NC1CCN(Cc2ccc(C(=O)O)cc2)CC1` [Example 1.51] reads 23 nM; that for `NC(=NC(=O)c1nc(Cl)c(N)nc1N)NC1CCN(Cc2ccc(C(=O)NCCc3cn(CCCO)cn3)cc2)CC1` [Example 1.52], 2 nM; that for `COC(=O)COc1ccc(CN2CCC(NC(N)=NC(=O)c3nc(Cl)c(N)nc3N)CC2)cc1OCC(=O)OC` [Example 1.53], 7 nM. The value for `N/C(=N\C(=O)c1nc(Cl)c(N)nc1N)NC1CCN(Cc2ccc(C(=O)NCCOCCO)cc2)CC1` [Example 1.54] was 4 nM; that for `N=C(N)c1ccc(CN2CCC(NC(N)=NC(=O)c3nc(Cl)c(N)nc3N)CC2)cc1` [Example 1.55] was 2 nM; that for `[N-]=[N+]=NCCOCCOCCOCCN(CCOCCOCCO)C(=O)c1ccc(=O)n(Cc2ccc(CN3CCC(NC(N)=NC(=O)c4nc(Cl)c(N)nc4N)CC3)cc2)c1` [Example 1.56] was 24 nM. `NC(=NC(=O)c1nc(Cl)c(N)nc1N)NC1CCN(Cc2ccc(CCc3cccnc3)cc2)CC1` [Example 1.57] yielded an IC50 of 5 nM. Compound `COCCOc1ccc(CCc2ccc(CN3CCC(NC(N)=NC(=O)c4nc(Cl)c(N)nc4N)CC3)cc2)nn1` [Example 1.58] yielded a half-maximal inhibitory concentration (IC50) of 7 nM. The value for `CC(C)(C)OC(=O)c1ccc(CN2CCC[C@H](NC(N)=NC(=O)c3nc(Cl)c(N)nc3N)C2)cc1` [Example 1.59] was 227 nM; that for `NC(=NC(=O)c1nc(Cl)c(N)nc1N)N[C@H]1CCCN(Cc2ccc(C(=O)O)cc2)C1` [Example 1.60] was 165 nM. The compound `CC(C)(C)OC(=O)c1ccc(CN2CCC[C@@H](NC(N)=NC(=O)c3nc(Cl)c(N)nc3N)C2)cc1` [Example 1.61] showed an IC50 of 47 nM. In turn, `NC(=NC(=O)c1nc(Cl)c(N)nc1N)N[C@@H]1CCCN(Cc2ccc(C(=O)O)cc2)C1` [Example 1.62] yielded an IC50 of 87 nM. Consider `NC(=NC(=O)c1nc(Cl)c(N)nc1N)NC1CCN(Cc2ccc(S(=O)(=O)NCCO)cc2)CC1` [Example 1.63], for which the IC50 came out at 6 nM. Compared with the last compound, the IC50 is about 14-fold lower. The result for `COc1cc(CN2CCC(NC(N)=NC(=O)c3nc(Cl)c(N)nc3N)CC2)cc(C(=O)O)c1` [Example 1.64] reads 17 nM; that for `NC(=NC(=O)c1nc(Cl)c(N)nc1N)NC1CCN(Cc2cccc(C(=O)NCCOCCO)c2)CC1` [Example 1.65], 4 nM; that for `COC(=O)COc1ccc(CN2CC(NC(N)=NC(=O)c3nc(Cl)c(N)nc3N)C2)cc1` [Example 1.66], 261 nM. The result for `COC(=O)COc1ccc(CN2CCC(N/C(N)=N/C(=O)c3nc(Br)c(N)nc3N)CC2)cc1` [Example 1.68] reads 11 nM; that for `N/C(=N\C(=O)c1nc(Cl)c(N)nc1N)NC1CCN(Cc2ccc(C(=O)NCCCS(=O)(=O)O)cc2)CC1` [Example 2.1], 12 nM; that for `CN(C)CCN(CCN(C)C)C(=O)c1ccc(CN2CCC(NC(N)=NC(=O)c3nc(Cl)c(N)nc3N)CC2)cc1` [Example 2.2], 6 nM. In the case of `C[N+](C)(C)CCNC(=O)c1cccc(CN2CCC(NC(N)=NC(=O)c3nc(Cl)c(N)nc3N)CC2)c1` [Example 2.3], the IC50 was 3 nM. On to `NC(=NC(=O)c1nc(Cl)c(N)nc1N)NC1CCN(Cc2ccc(C(=O)NCCS(=O)(=O)O)cc2)CC1` [Example 2.4], for which the IC50 was 35 nM. Against the preceding compound, the IC50 is about 12-fold higher. The result for `CN(C)CCNC(=O)Cc1ccc(CN2CCC(NC(N)=NC(=O)c3nc(Cl)c(N)nc3N)CC2)cc1` [Example 2.5] reads 6 nM.

For `N/C(=N\C(=O)c1nc(Cl)c(N)nc1N)NC1CCN(Cc2ccc(CCn3cc(CCC(=O)N(CCO)CCO)nn3)cc2)CC1` [Example 3.1], the IC50 was 29 nM. For the compound `NC(=NC(=O)c1nc(Cl)c(N)nc1N)NC1CCN(Cc2ccc(CCn3cc(COCCO)nn3)cc2)CC1` [Example 3.2], the midpoint of inhibition, the IC50, lay at 10 nM. With `NC(=NC(=O)c1nc(Cl)c(N)nc1N)NC1CCN(Cc2ccc(CCn3cc(COc4cccc(C(=O)NCCOCCO)c4)nn3)cc2)CC1` [Example 3.3], 24 nM corresponded to half-maximal inhibition (IC50). In turn, `CN(C)Cc1cn(CCc2ccc(CN3CCC(NC(N)=NC(=O)c4nc(Cl)c(N)nc4N)CC3)cc2)nn1` [Example 3.4] registered an IC50 of 7 nM.

`CN(Cc1cn(CCc2ccc(CN3CCC(NC(N)=NC(=O)c4nc(Cl)c(N)nc4N)CC3)cc2)nn1)C(=O)CCNC(=O)OC(C)(C)C` [Example 3.5] had an IC50 of 7 nM. This counts as single-digit nanomolar. The result for `CN(Cc1cn(CCc2ccc(CN3CCC(NC(N)=NC(=O)c4nc(Cl)c(N)nc4N)CC3)cc2)nn1)C(=O)CCNCCOCCOCCOCCOC(c1ccccc1)(c1ccccc1)c1ccccc1` [Example 3.6] reads 1 nM.

For the compound `NC(=NC(=O)c1nc(Cl)c(N)nc1N)NC1CCN(Cc2ccc(CCn3cc(COCC(CO)(CO)CO)nn3)cc2)CC1` [Example 3.7], the IC50 turned out to be 22 nM. The value for `NC(=NC(=O)c1nc(Cl)c(N)nc1N)NC1CCN(Cc2ccc(C(=O)NCCOCCOCCOCCn3cc(COCCO)nn3)cc2)CC1` [Example 3.8] was 19 nM. For the compound `NC(=NC(=O)c1nc(Cl)c(N)nc1N)NC1CCN(Cc2ccc(C(=O)NCCOCCOCCOCCn3cc(COC[B-](F)(F)F)nn3)cc2)CC1` [Example 3.9], half-maximal inhibition (IC50) required 20 nM. The value for `NC(=NC(=O)c1nc(Cl)c(N)nc1N)NC1CCN(Cc2ccc(C(=O)NCCOCCOCCOCCn3cc(CN4CCNCC4)nn3)cc2)CC1` [Example 3.10] was 23 nM; that for `NC(=NC(=O)c1nc(Cl)c(N)nc1N)NC1CCN(Cc2ccc(-n3cc(COCCO)nn3)cc2)CC1` [Example 3.11] was 6 nM. The value for `NC(=NC(=O)c1nc(Cl)c(N)nc1N)NC1CCN(Cc2ccc(-n3cc(CCC(=O)N(CCO)CCO)nn3)cc2)CC1` [Example 3.12] was 5 nM. The result for `NC(=NC(=O)c1nc(Cl)c(N)nc1N)NC1CCN(Cc2ccc(-n3cc(CCC(=O)O)nn3)cc2)CC1` [Example 3.13] reads 57 nM; that for `NC(=NC(=O)c1nc(Cl)c(N)nc1N)NC1CCN(Cc2ccc(-n3cc(COC[B-](F)(F)F)nn3)cc2)CC1` [Example 3.14], 6 nM.
